Here are results for 3 molecules from patent US20220120736A1, “METHODS AND ASSAYS FOR MODULATING GENE TRANSCRIPTION BY MODULATING CONDENSATES” (Whitehead Institute for Biomedical Research, priority 2018, published 2022).

Common to all, as to type: cell-based
In experiment [1] the target is T1, OCT4 (FKBP-tagged) (Mus musculus, UniProt P20263+Q8C7D2).
T1 construct: an ESC line bearing endogenous knock-in of DNA encoding the FKBP protein fused to OCT4; HA (C); endogenous in cells; host or cells: V6.5 mouse ES cells (Med1-mEGFP background), homozygous Oct4-FKBP knock-in
T1 sequence (P20263 with tags, fused parts or gaps): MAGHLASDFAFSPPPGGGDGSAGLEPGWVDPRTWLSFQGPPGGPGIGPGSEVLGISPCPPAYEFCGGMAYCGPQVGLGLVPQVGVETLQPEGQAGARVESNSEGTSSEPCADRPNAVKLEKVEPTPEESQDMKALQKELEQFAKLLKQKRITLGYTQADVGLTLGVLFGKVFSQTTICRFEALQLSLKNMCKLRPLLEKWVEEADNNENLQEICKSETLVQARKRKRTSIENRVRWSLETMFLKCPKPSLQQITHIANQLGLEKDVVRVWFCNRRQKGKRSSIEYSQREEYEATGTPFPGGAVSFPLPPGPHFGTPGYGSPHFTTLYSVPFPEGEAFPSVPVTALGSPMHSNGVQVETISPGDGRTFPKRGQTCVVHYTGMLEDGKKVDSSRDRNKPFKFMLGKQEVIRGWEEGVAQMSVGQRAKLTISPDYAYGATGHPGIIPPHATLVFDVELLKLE
T1 sequence (Q8C7D2 whole entry, the tested form may be a part): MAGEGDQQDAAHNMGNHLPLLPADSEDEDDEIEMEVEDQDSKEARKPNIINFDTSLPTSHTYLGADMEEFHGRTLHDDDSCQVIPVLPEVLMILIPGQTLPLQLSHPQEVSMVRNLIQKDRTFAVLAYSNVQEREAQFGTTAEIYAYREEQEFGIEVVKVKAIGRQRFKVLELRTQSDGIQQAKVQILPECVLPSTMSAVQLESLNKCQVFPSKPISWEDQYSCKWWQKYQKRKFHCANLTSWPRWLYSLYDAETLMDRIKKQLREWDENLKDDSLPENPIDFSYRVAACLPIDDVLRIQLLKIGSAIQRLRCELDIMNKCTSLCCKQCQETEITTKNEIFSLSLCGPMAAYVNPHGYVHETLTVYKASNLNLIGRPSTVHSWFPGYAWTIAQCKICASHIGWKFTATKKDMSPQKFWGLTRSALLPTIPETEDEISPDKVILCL
T1 sequence (Q3U1J4 whole entry partner, the tested form may be a part): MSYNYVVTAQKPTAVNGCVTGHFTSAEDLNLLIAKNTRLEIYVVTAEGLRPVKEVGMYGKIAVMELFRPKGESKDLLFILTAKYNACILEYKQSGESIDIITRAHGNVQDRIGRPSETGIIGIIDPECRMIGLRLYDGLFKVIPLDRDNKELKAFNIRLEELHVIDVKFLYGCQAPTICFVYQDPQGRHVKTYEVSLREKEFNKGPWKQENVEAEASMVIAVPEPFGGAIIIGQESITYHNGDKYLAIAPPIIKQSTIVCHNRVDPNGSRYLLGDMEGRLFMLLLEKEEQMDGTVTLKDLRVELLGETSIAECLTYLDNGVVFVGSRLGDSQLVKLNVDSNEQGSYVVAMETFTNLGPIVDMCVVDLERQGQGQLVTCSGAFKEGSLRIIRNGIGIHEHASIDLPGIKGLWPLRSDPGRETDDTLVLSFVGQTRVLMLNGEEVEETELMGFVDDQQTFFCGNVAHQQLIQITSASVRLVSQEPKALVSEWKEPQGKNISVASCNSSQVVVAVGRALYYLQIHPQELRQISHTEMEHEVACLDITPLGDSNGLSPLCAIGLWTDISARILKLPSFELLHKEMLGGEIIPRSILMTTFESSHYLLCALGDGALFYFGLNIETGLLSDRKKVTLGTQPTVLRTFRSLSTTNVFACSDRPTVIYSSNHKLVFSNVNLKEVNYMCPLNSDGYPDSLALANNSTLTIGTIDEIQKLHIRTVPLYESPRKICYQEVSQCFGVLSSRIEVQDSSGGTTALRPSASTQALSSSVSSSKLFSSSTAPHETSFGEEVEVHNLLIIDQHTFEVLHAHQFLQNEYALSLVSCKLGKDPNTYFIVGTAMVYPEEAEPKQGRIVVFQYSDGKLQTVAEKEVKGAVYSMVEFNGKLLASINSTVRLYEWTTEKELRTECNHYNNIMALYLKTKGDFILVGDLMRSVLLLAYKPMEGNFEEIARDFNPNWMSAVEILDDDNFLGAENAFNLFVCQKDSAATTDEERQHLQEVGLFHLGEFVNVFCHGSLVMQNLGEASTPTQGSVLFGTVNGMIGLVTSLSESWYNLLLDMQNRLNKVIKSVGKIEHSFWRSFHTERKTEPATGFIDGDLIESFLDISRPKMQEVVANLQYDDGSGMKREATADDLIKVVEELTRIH
As to the kind of experiment: RNA-seq after OCT4 degradation in OCT4-FKBP ESCs. The note with it: dTag 24 hours versus DMSO. On the procedure: RNA-Seq was performed in the indicated cell line with the indicated treatment, and used to determine expressed genes. RNA was isolated by AllPrep Kit (Qiagen 80204) and stranded polyA selected libraries was prepared using the TruSeq Stranded mRNA Library Prep Kit (Illumina, RS-122-2101) according to manufacturer's protocol and single-end sequenced on a Hi-seq 2500 instrument.
The CRISPR/Cas9 system was used to genetically engineer ESC lines. Target-specific oligonucleotides were cloned into a plasmid carrying a codon-optimized version of Cas9 with GFP (gift from R. Jaenisch). The sequences of the DNA targeted (the protospacer adjacent motif is underlined) are listed in the same table. […]
For analysis, raw reads were aligned to the mm9 revision of the mouse reference genome using hisat2 with default parameters. Gene name-level read count quantification was performed with htseq-count with parameters -I gene_id -stranded=reverse -f bam -m intersection-strict and a GTF containing transcript positions from Refseq, downloaded 6/6/18. Normalized counts, normalized fold-changes, and differential expression p values were determined using DEseq2 using the standard workflow and both replicates of each condition.

For experiment [2], the system named is ER LBD-MED1 condensate in U2OS-Lac cells. As to the kind of experiment: LAC binding assay (ER LBD tethered to Lac array). As to conditions: for MED1-containing condensate formation at tethered ER LBD: U2OS-Lac cells, 45 minutes, 10 nM B-Estradiol or 1 uM 4-Hydroxytamoxifen. On the procedure:
Constructs were assembled by NEB HIFI cloning in pSV2 mammalian expression vector containing an SV40 promoter driving expression of a CFP-LacI fusion protein. The activation domains and mutant activation domains of ESR1 were fused by the c-terminus to this recombinant protein, joined by the linker sequence […] (SEQ ID NO: 14). For some experiments a variant plasmid with mCherry in place of CFP was used. […] Cells were then plated on fibronectin-coated glass coverslips and transfected using lipofectamine 3000 (Thermofisher L3000015). For high MED1 conditions, a construct with a mammalian expression vector containing a PGK promoter driving the expression of MED1 fused to GFP was co-transfected. […] Following treatment, cells were fixed and immunofluorescence was performed with a MED1 antibody as described above.
For analysis of Lac array data, custom Python scripts were written to process and analyze image data gathered in Lac and tagged-protein channels. Nuclear stains were blurred with a Gaussian filter (sigma=2.0) and clustered into 2 clusters (nuclei and background) by K-means. The nuclei were then labeled with the python scikit-image package using the measure.label function. To segment Lac spots, the Lac image channel was blurred with a Gaussian filter (sigma=2.0), and an intensity threshold (mean+1.5*std) was applied to the image. Segmented regions (also determined by measure.label) were then filtered based on minimum area (150 pixels), maximum area (2000 pixels), circularity (c=4pi*area/perimeter^2; 0.8), and presence in a nucleus as defined by the mask described above. A norm enrichment ratio was calculated by determining the mean intensity of the tagged-protein in the segmented Lac spot and dividing it by the mean intensity of the tagged-protein present in the same whole nucleus.

The subject of experiment [3] is ER LBD (GAL4 DNA-binding domain fusion) in HEK293T cells. As to the kind of experiment: GAL4 transactivation assay. As to conditions: elevated MED1 levels; 10 nM Tamoxifen, 24 hours. The text has this: (SEQ ID NO: 14). […] For high MED1 conditions, a construct with a mammalian expression vector containing a PGK promoter driving the expression of MED1 fused to GFP was co-transfected.

Consider `CC[C@H](C(=O)N1CCCC[C@H]1C(=O)O[C@H](CCc1ccc(OC)c(OC)c1)c1ccccc1OCC(=O)NCCCCCCCCNc1ccc2c(c1)C(=O)N(C1CCC(=O)NC1=O)C2=O)c1cc(OC)c(OC)c(OC)c1` (some centres unmarked) [dTag], for which, in experiment [1], the “expression of SE-driven genes” value was “concomitantly decreased” and the “reduction in Nanog mRNA levels” value is listed as 60%.
As for `CC/C(=C(\c1ccccc1)c1ccc(OCCN(C)C)cc1)c1ccccc1` [tamoxifen], the “MED1 condensate generation by tethered ER LBD in the presence of tamoxifen” value in experiment [2] (MED1 overexpressed) is “generated a MED1 condensate”; in experiment [2] (normal MED1 levels) it was “did not generate a MED1 condensate”. The “MED1-containing condensate formation at tethered ER LBD” value in experiment [2] is recorded as “prevented”. Also, in experiment [3], the “GAL4 transactivation with tamoxifen-bound ER” value is given as “showed activation”.
As to `C[C@]12CC[C@@H]3c4ccc(O)cc4CC[C@H]3[C@@H]1CC[C@@H]2O` [estrogen, B-Estradiol], in experiment [2], the “MED1-containing condensate formation at tethered ER LBD” value is reported as “generated a MED1-containing condensate”. Moreover, in experiment [2] (normal ER), the “MED1 condensate formation at tethered ER LBD, dependence on estrogen” value is “only in the presence of estrogen”.
